In patent publication US6933315B2, “Derivatives of isoindigo, indigo and indirubin and methods of treating cancer” (priority 2001, dated 2005):

Columns and labels:
[1] = system: cyclin D1; experiment: Cyclin D1 protein level by Western blot in HUVEC cells; assay type: cell-based, human; details: 24 hrs; for cyclin D1 protein: 15 μM; for expression of cyclin D1: 5.0 and 15 μM
Experimental: Meisoindigo and NATURA also significant inhibit expression of cyclin D1 in HUVEC cells. Exponentially growing HUVEC cells were exposed to 5.0 and 15 μM of Meisoindigo and NATURA, 24 hrs after the exposures, the cells were harvested, washed, and total proteins extracted for Western blot analysis using a monoclonal antibody specific against cyclin D1 (Dako). […] As a result, phosphorylation of a tumor suppressor protein Rb, a native substrate of cyclin D1 mediated cdks, was diminished (data not shown).
HUVEC cells grown exponentially were treated for 24 hrs with […] of Meisoindigo and NATURA. The cells were harvested, washed, and total proteins extracted for Western blot analysis as previously described using antibodies specifically against cyclin D1 (panel A), and b-actin (equal loading control, panel B), and detected by ECL detection kit (Amersham). The levels of cyclin D1 from Panel A were quantitated by an imagine densitometor and normalized by b-action (Panel C).

[2] = system: neuroblastoma N2A cells; experiment: DNA fragmentation (ladder) in N2A neuroblastoma cells; assay type: cell-based, Mouse; details: 5 μM, 2 days
Experimental: (§1) Once cancer cells have been arrested at G1 phase by either derivatives of the invention, such as, Meisiondigo or NATURA, they will either differentiate or enter apoptosis. […] FIG. 8 confirms that Meisoindigo and NATURA cause apoptosis. The formation of DNA fragmentation (ladder) were measured, an indicator of cell apoptosis, in both LNCaP prostate and N2A neuroblastoma cells. To do this LNCaP and neuroblastoma N2A cells at exponential growth phase were exposed to indicated concentrations of Meisoindigo or NATURA or Taxol (20 nM, as a positive control) for 2 days. The cells were harvested, washed and DNA extracted. Approximately 2 μg per lane of DNA were subjected to 2% agarose gel electrophoresis.
(§2) Induction of Apoptosis: As we mentioned previously that cancer cells probably have two options after arrest at G1 phase, i.e. differentiation or apoptosis. […] To confirm our hypothesis and earlier observations, we measured poly(ADP-ribose) polymerase (PARP) degradation and the formation of DNA fragmentation (ladder), indicators of cell apoptosis, in both LNCaP prostate and N2A neuroblastoma cells. LNCaP and neuroblastoma N2A cells at exponential growth phase were exposed to indicated concentrations of Meisoindigo or NATURA or Taxol (20 nM, as a positive control) for 2 days. The cells were harvested, washed and DNA extracted. […]

[3] = system: MCF-7; experiment: Growth inhibition by MTT, MCF-7 breast cancer cells; assay type: cell-based, Human; details: Homo sapiens, MCF7, 72 h exposure
Experimental: (§3) Growth inhibitory effects of NATURA and other agents on human cancer cells were determined by standard MTT (3-(4,5-dimethylthiazol-2-yl)-2,5-diphenyltetrazolium bromide Test) as described previously. Briefly, cancer cells grown exponentially were aliquoted into 96-well plates at a density of 5000 cells/200 μl per well in RPMI 1640 medium containing 10% FBS overnight. The cells in the plates were then exposed to series of dilution of indicated agent. After 72 h of incubation, 100 μl of the medium was removed from each of the wells and 50 μl of a 1 mg/ml solution of 3-(4,5-dimethylthiazol-2-yl)-2,5-diphenyltetrazolium bromide (MTT) was added to each well and the cells were incubated for additional 4 h. 200 μl of solution of 0.04 N HCl-isopropanol was added to each well to dissolve the black fromazan participates, and absorbance at 540 nm was measured on a 96-Well.
as §3, with “FIGS. 3-5 show the anticancer affects” for “Growth inhibitory effects”, “NATURA in MCF-7 breast cancer cells, DLD-1 colon cancer cells,” for “NATURA”, “LNCaP hormone-dependent prostate” for “other agents on human”, “cells. The” for “cells were determined by standard MTT (3-(4,5-dimethylthiazol-2-yl)-2,5-diphenyltetrazolium bromide Test) as described previously. Briefly,”, “fetal bovine serum (FBS)” for “FBS”, “96-Well Microplate Reader. Each experiment was repeated at least three times.” for “96-Well.”

[4] = system: LNCaP cells; experiment: DNA fragmentation (ladder) in LNCaP cells; assay type: cell-based, Human; details: 15 μM, 2 days
Experimental: as §1, §2

[5] = system: ML-1 cells; experiment: Morphological differentiation of ML-1 cells; assay type: cell-based, human; details: 5 days after exposure
[6] = system: DU145; experiment: Growth inhibition by MTT, DU145 prostate cancer cells; assay type: cell-based, Human; details: Homo sapiens, DU-145; MTT, 72 h exposure; read-out: IC50 DU145
Experimental: as §3

[7] = system: cdk4/6; experiment: cdk4/6 activity immuno-precipitated from treated LNCaP cells; assay type: cell-based, Human
Experimental: (§4) Assay for cyclin dependent kinase activity: HUVEC and LNCaP cells were cultured in EMB (endothelial cell basal medium) and RPMI 1640 containing 10% FBS, respectively. The cells grown exponentially were exposed to indicated concentrations of meisoindigo or NATURA for 24 hr. The cells were harvested, washed, and total proteins extracted as described previously. One hundred μg of the proteins were immuno-precipitated using antibodies against cdk2, cdk4/6, PKC, ERK2 or cyclin D1 overnight at 4° C. in the presence of a cocktail of protease inhibitors. The immuno-precipitates were washed 4 times with protein extraction buffer and once with kinase assay buffer, and reacted with 75 μg/ml histone H1 in the presence of [γ-^32P]-ATP (2.5 μCi/10 μM). The phosphorylated histone H1 (represent cdk activity) was measured by scintillation counting or by SDS-polyacrylaimde gel electrophoresis. The direct inhibitory effects of Meisoindigo and NATURA were also measured by reaction of immuno-purified specific enzyme from untreated cells directly with the Meisoindigo or NATURA.
as §4, with “HUVEC” for “Assay for cyclin dependent kinase activity: HUVEC”, “either cdk4/6” for “cdk2, cdk4/6, PKC, ERK2”, “[γ-^32P]-ATP.” for “[γ-^32P]-ATP (2.5 μCi/10 μM).”, “counting.” for “counting or by SDS-polyacrylaimde gel electrophoresis. The direct inhibitory effects of Meisoindigo and NATURA were also measured by reaction of immuno-purified specific enzyme from untreated cells directly with the Meisoindigo or NATURA.”

[8] = 15 μM, LNCaP cells exposed 24 h

| SMILES | cyclin D1 protein [1] | expression of cyclin D1 [1] | DNA ladders [2] | IC50 [3] [µM] | DNA fragmentation [4] | ML-1 cells differentiated morphologically [5] | IC50 [6] [µM] | inhibition of D cyclins mediated cdk4/6 enzyme activity ([7]; 5.0 μM, LNCaP cells, 24 h) | activity on cdk4 compared with cdk2 ([7]; 5 μM, LNCaP cells, 24 hours) | inhibition of D cyclins mediated cdk4/6 enzyme activity [7, 8] | inhibitory affect on cdk4/6 activity compared with same concentration of meisoindigo ([7]; 5.0 μm, FIG. 7) |
| --- | --- | --- | --- | --- | --- | --- | --- | --- | --- | --- | --- |
| CC(=O)OC1COC(N2C(=O)/C(=C3/C(=O)Nc4ccccc43)c3ccccc32)C(OC(C)=O)C1OC(C)=O [NATURA, 1-(β-D-O-Triacetyl-xylopyranosyl)-isoindigo] | almost completely lost | strongly inhibit | sufficient to significantly induce DNA ladders | 2.91 ± 0.28 | significant DNA fragmentation | approximately 48% | 6.92 ± 0.73 | Over 56% | slight stronger activity | complete inhibition | greater inhibitory affect |
| CN1C(=O)/C(=C2/C(=O)Nc3ccccc32)c2ccccc21 [Meisoindigo] | almost completely lost | strongly inhibit | sufficient to significantly induce DNA ladders | 4.37 ± 0.31 | significant DNA fragmentation | approximately 48% | 8.31 ± 0.93 | Over 56% | – | complete inhibition | – |
